# In publication PMC9147192, “Small Molecule Arranged Thermal Proximity Coaggregation (smarTPCA)—A Novel Approach to Characterize Protein–Protein Interactions in Living Cells by Similar Isothermal Dose–Responses” (International Journal of Molecular Sciences, 2022):
# “And” between values parts separate entries of the source, which are not always exact repeats. Identical values can stand only once. Like-named read-outs stand apart in the source and are kept apart here.
# Assays:
# Test in all cases: CETSA in HL-60 cell extract, immunoblot
# Type in all cases: binding
# [1] = molecular target: MAPK14 (Homo sapiens, UniProt Q16539)
# Sequence of MAPK14 (Q16539 whole entry): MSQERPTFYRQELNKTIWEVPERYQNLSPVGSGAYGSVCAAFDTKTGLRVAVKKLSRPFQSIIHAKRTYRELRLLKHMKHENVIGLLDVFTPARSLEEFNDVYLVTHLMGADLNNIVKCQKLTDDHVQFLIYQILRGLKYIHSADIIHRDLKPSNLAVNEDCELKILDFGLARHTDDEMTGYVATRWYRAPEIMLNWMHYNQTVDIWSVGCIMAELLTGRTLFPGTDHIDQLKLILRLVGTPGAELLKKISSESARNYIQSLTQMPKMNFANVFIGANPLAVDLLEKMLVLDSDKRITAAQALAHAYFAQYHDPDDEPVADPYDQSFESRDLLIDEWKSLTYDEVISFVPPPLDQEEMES
# Protocol: (§1) For the differentiation of primary and secondary binding effects, CETSA experiments using cell extracts instead of living cells (cell extract test) are proposed in the literature. Therefore, we performed CETSA assays in HL-60 cell extracts under the same conditions as for living cells (Figure 1, Table 1, Supplementary Table S6).
# (§2) HL-60 cells were expanded as described above for CETSA and TPP-TR to about 1.25 million cells per ml. 50 mL of the cell suspension, respectively, was transferred into 50 mL conical tubes. After centrifugation (300 rcf, 3 min, r.t.) and removing all of the supernating culture medium, the cells were washed twice with 25 mL PBS (r.t.) by gently resuspending the cells, followed by centrifugation (300 rcf, 3 min, r.t.) and the removal of the supernatant. The cells were transferred into pre-weighed 2 mL LoBind Eppendorf tubes using 1 mL PBS (r.t.), respectively, for resuspending. After centrifugation (300 rcf, 3 min, r.t.) and removing as much as possible of the supernatants, the cell wet weights were determined. The cells were stored at −80 °C after shock-freezing in liquid nitrogen.
# (§3) Cell extracts were obtained by four freeze/thaw cycles as described above for CETSA and TPP-TR using 10 µL ice cold PBS supplemented with protease inhibitors per milligram of cell pellet wet weight for the initial resuspension of the pellet, followed by centrifugation (20,000 rcf, 30 min, 4 °C), and the recovery of the supernatant. After determining the protein content, the cell extracts were diluted to 1.8 mg/mL total protein concentration using ice-cold PBS supplemented with protease inhibitors and aliquots of 99 µL in PCR tube strips, and 1.1 mL in LoBind 1.5 mL Eppendorf tubes were shock-frozen in liquid nitrogen and stored at −80 °C or directly processed.
# (§4) A fourth aliquot of 1.8 mg/mL HL-60 cell extract was supplemented with 2.2 µL of DMSO. […] After a brief centrifugation using a benchtop centrifuge, the temperature treatment at the ten different temperatures was performed as described in Section 4.1.1.
# (§5) Additionally, the preparation of cell extracts containing the fraction of soluble, non-denatured proteins was performed as described in Section 4.1.1. for living cells, but omitting the freeze/thaw steps for cell lysis.
# (§6) For each sample set comprising either ten temperature range samples or ten compound concentration range samples, the same volume of the cell extracts containing the fraction of soluble, non-denatured proteins was used for further analysis. This volume was determined using the two lowest temperature samples (36.5 and 41.2 °C) per temperature range sample set so that they contained an average of 5 µg total protein (e.g., 2.78 µL for all temperature range samples of a sample set whose two lowest temperature samples contain an average of 1.8 mg/mL protein). For the compound concentration range experiments, all samples of a set were used for averaging. The calculated volume was respectively transferred into PCR tubes of a tube strip, supplemented with SDS sample buffer (final concentrations: 25 mM dithiothreitol (DTT), 7.5% glycerol, 3% SDS, 37.5 mM Tris/HCl pH 7.0, 0.005% bromophenol blue), incubated for 10 min at r.t. and applied to SDS-PAGE under external cooling in an ice bath (MW marker: PageRuler pre-stained protein ladder (Thermo scientific, Waltham, MA, USA); NuPAGE 4–12% Bis-Tris Gels, 1.0 mm, Midi Protein Gel, 26-well (Thermo fisher scientific); ice cold MOPS SDS running buffer (50 mM MOPS, 50 mM Tris base, 0.1% SDS, 0.003% EDTA (free acid)); 50 V for 15 min, then 200 V for about 1.5 h, i.e., the rest of the run).
# [2] = molecular target: MAPKAPK3 (Homo sapiens, UniProt Q16644)
# Sequence of MAPKAPK3 (Q16644 whole entry): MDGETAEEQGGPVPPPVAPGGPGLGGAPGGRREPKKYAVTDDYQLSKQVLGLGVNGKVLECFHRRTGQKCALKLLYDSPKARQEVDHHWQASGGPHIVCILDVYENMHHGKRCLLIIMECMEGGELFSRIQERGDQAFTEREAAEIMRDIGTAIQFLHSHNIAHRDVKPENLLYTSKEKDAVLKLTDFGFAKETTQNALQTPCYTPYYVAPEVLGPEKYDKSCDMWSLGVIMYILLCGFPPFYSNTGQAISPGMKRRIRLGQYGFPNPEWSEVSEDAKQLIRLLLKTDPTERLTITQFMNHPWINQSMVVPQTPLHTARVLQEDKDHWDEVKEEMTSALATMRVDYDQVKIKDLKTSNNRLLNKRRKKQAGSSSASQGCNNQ
# Sequence of MAPKAPK3 (Q16539 whole entry partner): as the sequence (Q16539 whole entry) above
# Protocol: as §1, §2, §3, §4, §5, §6
# [3] = molecular target: T1, MAPKAPK2p (Homo sapiens, UniProt P49137)
# T1 construct: phosphorylation-dependent electrophoretic mobility shift (PDEMS) of MAPKAPK2, which appeared as a double band; endogenous in cells; host or cells: HL-60 (ATCC CCL-240), living cells or cell extract
# T1 sequence (P49137 whole entry): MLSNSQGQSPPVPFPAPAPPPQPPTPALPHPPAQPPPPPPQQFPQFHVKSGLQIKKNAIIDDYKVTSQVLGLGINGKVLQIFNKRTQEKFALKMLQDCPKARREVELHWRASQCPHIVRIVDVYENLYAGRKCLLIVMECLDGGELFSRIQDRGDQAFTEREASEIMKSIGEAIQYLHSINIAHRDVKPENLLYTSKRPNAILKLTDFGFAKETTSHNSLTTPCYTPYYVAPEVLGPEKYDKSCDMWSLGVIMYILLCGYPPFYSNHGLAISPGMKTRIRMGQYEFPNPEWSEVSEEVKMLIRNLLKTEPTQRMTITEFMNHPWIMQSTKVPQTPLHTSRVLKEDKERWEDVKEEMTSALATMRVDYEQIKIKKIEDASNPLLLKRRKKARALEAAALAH
# T1 sequence (Q16539 2-360 partner): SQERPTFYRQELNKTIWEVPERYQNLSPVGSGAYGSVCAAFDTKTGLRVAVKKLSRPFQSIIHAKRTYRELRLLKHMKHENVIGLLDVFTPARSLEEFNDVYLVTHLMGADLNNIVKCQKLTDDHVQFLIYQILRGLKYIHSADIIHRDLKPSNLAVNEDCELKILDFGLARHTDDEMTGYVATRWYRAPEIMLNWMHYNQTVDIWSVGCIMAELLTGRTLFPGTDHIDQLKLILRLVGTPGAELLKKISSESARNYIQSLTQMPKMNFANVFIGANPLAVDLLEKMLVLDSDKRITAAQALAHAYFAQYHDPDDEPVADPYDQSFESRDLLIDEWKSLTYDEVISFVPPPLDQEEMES
# Protocol: as §1, §2, §3, §4, §5, §6
# [4] = HL-60 cell extract, 20 µM inhibitor, immunoblot
# [5] = HL-60 cell extract, 20 µM inhibitor, immunoblot, 20 µM
# [6] = MAPKAPK3, cell extract, immunoblot
# [7] = MAPKAPK2p, cell extract, immunoblot
smiles,measurement,setting,value
Cn1c(NC[C@@H](N)Cc2ccccc2)nc(-c2ccncc2)c(-c2ccc3ccccc3c2)c1=O [AMG-548],ΔTm at 20 µM,"[1]; 20 µM inhibitor, read-out: ΔTm to DMSO in Cell Extract Compared to Living Cells (MAPK14)",-1.16 °C
same,"Tm difference vs DMSO, same protein","[1]; CETSA in cell extract (lysate), MAPK14, inhibitor minus DMSO",13.60
same,Tm (fitted melting curve),"[1]; CETSA in cell extract (lysate), MAPK14, in °C",59.15
same,Tm (MAPK14),[1]; [4],59.15 °C
same,ΔTm at 20 µM,"[1]; HL-60 cell extract, 20 µM inhibitor, immunoblot, read-out: ΔTm to DMSO (MAPK14)",13.6 °C
same,Tm,"[1]; MAPK14, cell extract, immunoblot",59.15 °C
same,ΔTm to DMSO in Cell Extract Compared to Living Cells (MAPKAPK3),[2]; 20 µM inhibitor,−3.99 °C
same,"Tm difference vs DMSO, same protein","[2]; CETSA in cell extract (lysate), MAPKAPK3, inhibitor minus DMSO",2.63
same,Tm (fitted melting curve),"[2]; CETSA in cell extract (lysate), MAPKAPK3, in °C",49.31
same,Tm (MAPKAPK3),[2]; [4],49.31 °C
same,ΔTm to DMSO (MAPKAPK3),[2]; [5],2.6 °C and 2.63 °C
same,ΔTm to DMSO in cell extract compared to living cells,"[2]; MAPKAPK3, cell extract minus living cells",-3.99 °C
same,Tm,[2]; [6],49.31 °C
same,ΔTm to DMSO,[2]; [6],2.63 °C
same,"Tm difference vs DMSO, same protein","[3]; CETSA in cell extract (lysate), MAPKAPK2p, inhibitor minus DMSO",2.82
same,Tm (fitted melting curve),"[3]; CETSA in cell extract (lysate), MAPKAPK2p, in °C",50.95
same,Tm (MAPKAPK2p),[3]; [4],50.95 °C
same,ΔTm to DMSO (MAPKAPK2p),[3]; [5],2.82 °C
same,ΔTm to DMSO (MAPKAPK2p),"[3]; HL-60 cell extract, 20 µM inhibitor, immunoblot, listed as AMG548, 20 µM",2.8 °C
same,Tm,[3]; [7],50.95 °C
same,ΔTm to DMSO,[3]; [7],2.82 °C
